Laboratory results reported in the NIST ThermoML archive (doi:10.1016/j.fluid.2013.08.005).

Test: mn = molality of the nth substance listed, in mol/kg
Settings: 298.15 K, 101 kPa, Liquid; for electrical conductivity: Alternating current cell with electrodes; for mass density: Vibrating tube method

CCCCCC[N+](C)(C)C.[Br-] [hexyltrimethylammonium bromide] + O
Settings | electrical conductivity [S/m] | mass density [kg/m3]
m1 = 0.02501 | 0.446 | 997.79
m1 = 0.05001 | 0.641 | 998.57
m1 = 0.07505 | 0.99 | 999.34
m1 = 0.125 | 1.02 | 1000.88
m1 = 0.13 | 1.15 | 1001.05
m1 = 0.15 | 1.3 | 1001.64
m1 = 0.1751 | 1.72 | 1002.41
m1 = 0.25 | 1.85 | 1004.69
m1 = 0.2751 | 2.08 | 1005.39
m1 = 0.3251 | 2.2 | 1006.85
m1 = 0.3501 | 2.41 | 1007.63
m1 = 0.4001 | 2.51 | 1009.06
m1 = 0.425 | 2.79 | 1009.77
m1 = 0.5001 | 3.53 | 1011.89
m1 = 0.7503 | 3.83 | 1018.71
m1 = 0.8791 | 4.07 | 1021.99
m1 = 1 | 0.239 | 1025.02
m1 = 1.501 | – | 1036.33
m1 = 2.001 | – | 1046
